Measurements published in ChEMBL document CHEMBL4418912, “Methods of identifying antagonists of the hTAS2R46 bitter taste receptor” (2014).
Activity calls are given as the source filed them. No cut-off for these calls is given here.

Legend:
Assay type in all cases: functional, cell-based
[1] = target: T1, Taste receptor type 2 member 14 (Homo sapiens) (UniProt Q9NYV8); test: Agonist activity at recombinant human N-terminal rat ST3 receptor-fused TAS2R14 expressed in HEK293T cells co-expressing Galpha16gust44 assessed as increase in intracellular calcium level at 100 uM by FLIPR assay
T1 sequence (whole entry): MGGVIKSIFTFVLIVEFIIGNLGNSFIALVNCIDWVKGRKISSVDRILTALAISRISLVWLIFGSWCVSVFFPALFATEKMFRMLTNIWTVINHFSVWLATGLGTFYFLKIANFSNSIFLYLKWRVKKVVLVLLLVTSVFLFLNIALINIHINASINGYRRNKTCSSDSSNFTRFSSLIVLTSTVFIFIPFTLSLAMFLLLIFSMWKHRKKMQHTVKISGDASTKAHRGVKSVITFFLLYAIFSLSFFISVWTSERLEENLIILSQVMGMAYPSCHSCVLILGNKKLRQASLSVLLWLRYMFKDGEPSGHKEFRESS

[2] = target: T2, Taste receptor type 2 member 46 (Homo sapiens) (UniProt P59540); test: Agonist activity at recombinant human N-terminal rat ST3 receptor-fused TAS2R46 expressed in HEK293T cells co-expressing Galpha16gust44 assessed as increase in intracellular calcium level at 100 uM by FLIPR assay
T2 sequence (whole entry): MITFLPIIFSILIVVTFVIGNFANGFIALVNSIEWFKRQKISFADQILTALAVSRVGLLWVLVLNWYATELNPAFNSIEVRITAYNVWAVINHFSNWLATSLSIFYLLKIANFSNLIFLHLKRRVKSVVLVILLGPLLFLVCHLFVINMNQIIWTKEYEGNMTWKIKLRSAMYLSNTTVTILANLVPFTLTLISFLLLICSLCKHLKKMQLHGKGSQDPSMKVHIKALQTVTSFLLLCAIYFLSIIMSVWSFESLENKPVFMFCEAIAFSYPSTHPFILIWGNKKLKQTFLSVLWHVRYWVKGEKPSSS

[3] = target: T3, Taste receptor type 2 member 43 (Homo sapiens) (UniProt P59537); test: Antagonist activity at recombinant human N-terminal rat ST3 receptor-fused TAS2R43 expressed in HEK293T cells co-expressing Galpha16gust44 assessed as inhibition of aristolochic acid-induced intracellular calcium level at 100 uM by FLIPR assay
T3 sequence (whole entry): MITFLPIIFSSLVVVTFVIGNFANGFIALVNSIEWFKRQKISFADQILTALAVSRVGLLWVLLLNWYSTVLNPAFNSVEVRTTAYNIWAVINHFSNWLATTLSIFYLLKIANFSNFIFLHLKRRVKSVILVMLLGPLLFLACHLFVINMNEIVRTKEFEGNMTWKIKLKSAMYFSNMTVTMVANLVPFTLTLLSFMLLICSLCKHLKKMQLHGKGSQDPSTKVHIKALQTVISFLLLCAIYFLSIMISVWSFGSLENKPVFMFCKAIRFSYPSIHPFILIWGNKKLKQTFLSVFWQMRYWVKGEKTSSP

[4] = target: T4, Taste receptor type 2 member 10 (Homo sapiens) (UniProt Q9NYW0); test: Antagonist activity at recombinant human N-terminal rat ST3 receptor-fused TAS2R10 expressed in HEK293T cells co-expressing Galpha16gust44 assessed as inhibition of strychnine-induced increase in intracellular calcium level at 100 uM by FLIPR assay
T4 sequence (whole entry): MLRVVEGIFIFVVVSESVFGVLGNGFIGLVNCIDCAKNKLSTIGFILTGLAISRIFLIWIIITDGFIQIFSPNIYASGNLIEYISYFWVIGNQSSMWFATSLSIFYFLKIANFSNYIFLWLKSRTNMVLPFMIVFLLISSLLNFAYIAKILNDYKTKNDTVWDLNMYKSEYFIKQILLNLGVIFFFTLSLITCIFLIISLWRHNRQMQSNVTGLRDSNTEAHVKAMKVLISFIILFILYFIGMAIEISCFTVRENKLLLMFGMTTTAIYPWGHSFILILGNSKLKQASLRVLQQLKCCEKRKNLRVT

[5] = target: T5, Taste receptor type 2 member 38 (Homo sapiens) (UniProt P59533); test: Antagonist activity at recombinant human N-terminal rat ST3 receptor-fused TAS2R38 expressed in HEK293T cells co-expressing Galpha16gust44 assessed as inhibition of phenylthiocarbamide-induced increase in intracellular calcium level at 100 uM by FLIPR assay
T5 sequence (whole entry): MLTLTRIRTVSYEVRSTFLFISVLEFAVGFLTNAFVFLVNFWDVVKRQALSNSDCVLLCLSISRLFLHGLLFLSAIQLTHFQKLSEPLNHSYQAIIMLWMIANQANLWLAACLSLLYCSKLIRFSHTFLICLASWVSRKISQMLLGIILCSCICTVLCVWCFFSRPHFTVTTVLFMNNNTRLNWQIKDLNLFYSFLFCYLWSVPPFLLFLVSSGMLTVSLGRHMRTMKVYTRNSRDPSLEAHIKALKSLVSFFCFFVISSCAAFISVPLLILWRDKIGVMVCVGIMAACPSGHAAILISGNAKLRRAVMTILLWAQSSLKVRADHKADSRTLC

[6] = target: T6, Taste receptor type 2 member 31 (Homo sapiens) (UniProt P59538); test: Antagonist activity at recombinant human N-terminal rat ST3 receptor-fused TAS2R44 expressed in HEK293T cells co-expressing Galpha16gust44 assessed as inhibition of aristolochic acid-induced intracellular calcium level at 100 uM by FLIPR assay
T6 sequence (whole entry): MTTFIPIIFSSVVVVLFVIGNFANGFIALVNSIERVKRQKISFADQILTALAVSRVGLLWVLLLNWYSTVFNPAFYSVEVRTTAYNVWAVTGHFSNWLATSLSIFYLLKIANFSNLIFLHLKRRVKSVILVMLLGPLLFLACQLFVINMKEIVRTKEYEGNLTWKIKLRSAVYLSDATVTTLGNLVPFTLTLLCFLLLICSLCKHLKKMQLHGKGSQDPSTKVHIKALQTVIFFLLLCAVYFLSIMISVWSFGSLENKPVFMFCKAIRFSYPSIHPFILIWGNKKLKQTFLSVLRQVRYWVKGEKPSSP

[7] = target: T7, Taste receptor type 2 member 20 (Homo sapiens) (UniProt P59543); test: Antagonist activity at recombinant human N-terminal rat ST3 receptor-fused TAS2R49 expressed in HEK293T cells co-expressing Galpha16gust44 assessed as inhibition of cromolyn-induced increase in intracellular calcium level at 100 uM by FLIPR assay
T7 sequence (whole entry): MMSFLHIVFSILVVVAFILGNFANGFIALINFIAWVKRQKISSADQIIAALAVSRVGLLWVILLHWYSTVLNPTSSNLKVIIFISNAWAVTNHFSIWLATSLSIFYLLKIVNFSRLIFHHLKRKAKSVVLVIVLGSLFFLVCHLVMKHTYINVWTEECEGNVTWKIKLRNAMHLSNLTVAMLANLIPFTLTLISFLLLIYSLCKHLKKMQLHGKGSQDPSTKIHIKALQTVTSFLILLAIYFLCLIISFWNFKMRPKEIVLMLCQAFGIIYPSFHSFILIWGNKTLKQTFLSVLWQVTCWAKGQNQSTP

`C/C1=C\C[C@H](O)[C@@H](C)C[C@H]2OC(=O)[C@@H](C)[C@@H]2CC1` was tested, and the Activity [1] was “Active”, the Activity [2] was “Active” and the inhibition [3] was “Active”. The inhibition [4] was “inactive”, the inhibition [5] was “inactive” and the inhibition [6] was “Active”. For the same compound, the inhibition [7] was “inactive”.

`C/C1=C\C[C@H](O)/C(C)=C/[C@H]2OC(=O)[C@@H](C)[C@@H]2CC1` was tested, and the Activity [1] was “Active”, the Activity [2] was “inactive” and the inhibition [3] was “Active”. The inhibition [4] was “inactive”, the inhibition [5] was “inactive” and the inhibition [6] was “inactive”. The inhibition [7] was “inactive”.
